Experimental data: ChEMBL document CHEMBL1201862, “PubChem BioAssay data set” (2004)
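Method: 48-hour compound exposure of cells in 96-well plates, five concentrations, linear interpolation of endpoints. At the GI50, growth is halved.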 Calls of active or inactive are those of the source. Cut-off read from the data, not from the text of the source: active = GI50 up to about 1.1 µM and inactive = higher.

Experiments:
Experiment in all cases: DTP human tumour cell line panel, 48 h
[1] = tested on: U-251
[2] = tested on: SF-295
[3] = tested on: MOLT-4
[4] = tested on: TK-10
[5] = tested on: UACC-257
[6] = tested on: IGROV-1
[7] = tested on: RXF 393
[8] = tested on: HCT-15
[9] = tested on: SK-MEL-5
[10] = tested on: HT-29
[11] = tested on: CAKI-1
[12] = tested on: SNB-75
[13] = tested on: OVCAR-3
[14] = tested on: SF-539
[15] = tested on: Malme-3M
[16] = tested on: ACHN
[17] = tested on: KM12

Row | SMILES | GI50 [1] | GI50 [2] | GI50 [3] | GI50 [4] | GI50 [5] | GI50 [6] | GI50 [7] | GI50 [8] | GI50 [9] | GI50 [10] | GI50 [11] | GI50 [12] | GI50 [13] | GI50 [14] | GI50 [15] | GI50 [16] | GI50 [17]
1 | CC1CCc2c(sc3ncnc(N/N=C/c4ccc(Cl)cc4)c23)C1 (stereo not given) | 31.9 µM (inactive) | 29.8 µM (inactive) | 20.6 µM (inactive) | 38.2 µM (inactive) | 29.8 µM (inactive) | 53.1 µM (inactive) | 29.6 µM (inactive) | 32.3 µM | 17.6 µM (inactive) | 38.5 µM (inactive) | 40.8 µM (inactive) | 78.9 µM (inactive) | 35.4 µM (inactive) | > 10 µM (inactive) | > 100 µM (inactive) | 27.3 µM (inactive) | –
2 | CN(C)C(=O)Nc1c([N+](=O)[O-])cc(C(F)(F)F)cc1[N+](=O)[O-] | > 100 µM (inactive) | 63.4 µM (inactive) | 78.5 µM (inactive) | > 100 µM (inactive) | 27.8 µM (inactive) | > 100 µM (inactive) | 8.45 µM (inactive) | 37.1 µM | 17.2 µM (inactive) | 35 µM (inactive) | > 100 µM (inactive) | 74 µM (inactive) | 19.5 µM (inactive) | 42 µM (inactive) | – | 83.4 µM (inactive) | 37 µM (inactive)
3 | NC(=O)NC(=O)C1CCC(=O)N1S(=O)(=O)c1ccc(Cl)cc1 (stereo not given) | > 100 µM (inactive) | > 100 µM (inactive) | > 100 µM (inactive) | > 100 µM (inactive) | > 100 µM (inactive) | > 100 µM (inactive) | > 100 µM (inactive) | > 100 µM | > 100 µM (inactive) | > 100 µM (inactive) | > 100 µM (inactive) | > 100 µM (inactive) | > 100 µM (inactive) | > 100 µM (inactive) | > 100 µM (inactive) | > 100 µM (inactive) | > 100 µM (inactive)
4 | CCOC(=O)/C(O)=C/c1cc(OC)cc(=O)o1 | > 100 µM (inactive) | > 100 µM (inactive) | > 100 µM (inactive) | > 100 µM (inactive) | > 100 µM (inactive) | > 100 µM (inactive) | > 100 µM (inactive) | > 100 µM | > 100 µM (inactive) | > 100 µM (inactive) | > 100 µM (inactive) | > 100 µM (inactive) | > 100 µM (inactive) | > 100 µM (inactive) | > 100 µM (inactive) | > 100 µM (inactive) | > 100 µM (inactive)
5 | CN(C)CCNC(=O)c1cccc2ccc(-c3cccnc3)nc12 | 4.36 µM (inactive) | 5.69 µM (inactive) | 2.74 µM (inactive) | 2.48 µM (inactive) | 4.15 µM (inactive) | 3.24 µM (inactive) | 6.32 µM (inactive) | 4.06 µM | 3.72 µM (inactive) | 4.78 µM (inactive) | 3.88 µM (inactive) | 10.6 µM (inactive) | 6.27 µM (inactive) | 11.4 µM (inactive) | 5.41 µM (inactive) | 3.44 µM (inactive) | 6.5 µM (inactive)
6 | CSc1n/c(=N\c2ccccc2)sn1-c1ccccc1 | 14.9 µM (inactive) | 21.5 µM (inactive) | 11.2 µM (inactive) | 26.7 µM (inactive) | 20.3 µM (inactive) | 4.65 µM (inactive) | 16.8 µM (inactive) | 13.8 µM | 11.2 µM (inactive) | 3.52 µM (inactive) | 13.5 µM (inactive) | 27.2 µM (inactive) | 18 µM (inactive) | 18.6 µM (inactive) | 24.3 µM (inactive) | 18.9 µM (inactive) | 17.3 µM (inactive)
7 | CSc1nc2c(nc(N)n2C2OC(CO)C(O)C(O)C2O)c(=O)n1C (stereo not given) | > 100 µM (inactive) | > 100 µM (inactive) | > 100 µM (inactive) | > 100 µM (inactive) | > 100 µM (inactive) | > 100 µM (inactive) | > 100 µM (inactive) | – | > 100 µM (inactive) | > 100 µM (inactive) | > 100 µM (inactive) | > 100 µM (inactive) | > 100 µM (inactive) | > 100 µM (inactive) | > 100 µM (inactive) | > 100 µM (inactive) | > 100 µM (inactive)
8 | O=C1N2Cc3c4ccc5c3CN3C(=O)N6Cc7c(ccc(c7CN1C6(c1ccccc1)C23c1ccccc1)OCCOCCOc1cc(Br)c(Br)cc1OCCOCCO4)OCCOCCOc1cc(Br)c(Br)cc1OCCOCCO5 (stereo not given) | > 100 µM (inactive) | – | > 100 µM (inactive) | 65.9 µM (inactive) | > 100 µM (inactive) | 44 µM (inactive) | > 100 µM (inactive) | 25.4 µM | 44.3 µM (inactive) | > 100 µM (inactive) | > 100 µM (inactive) | 38.2 µM (inactive) | > 100 µM (inactive) | 20.1 µM (inactive) | 75.5 µM (inactive) | 47.8 µM (inactive) | > 100 µM (inactive)
9 | COc1ccc(C2NCCc3c2[nH]c2ccccc32)cc1 (stereo not given) | > 100 µM (inactive) | > 100 µM (inactive) | > 100 µM (inactive) | > 100 µM (inactive) | 45.6 µM (inactive) | > 100 µM (inactive) | 67.1 µM (inactive) | > 100 µM | 22.5 µM (inactive) | > 100 µM (inactive) | – | 30.5 µM (inactive) | > 100 µM (inactive) | > 100 µM (inactive) | 27 µM (inactive) | > 100 µM (inactive) | > 100 µM (inactive)
10 | Cc1ccc([N+](=O)[O-])cc1NC(=O)c1cccc([N+](=O)[O-])c1O | 15.9 µM (inactive) | 18 µM (inactive) | 15.6 µM (inactive) | 31.2 µM (inactive) | 9.59 µM (inactive) | 11.7 µM (inactive) | 3.99 µM (inactive) | 25 µM | 7.91 µM (inactive) | 20.1 µM (inactive) | 17.8 µM (inactive) | 13.4 µM (inactive) | 7.24 µM (inactive) | 12.3 µM (inactive) | 5.09 µM (inactive) | 14.4 µM (inactive) | 19.1 µM (inactive)
11 | COc1cc2cc[n+](C)c(Cc3ccccc3)c2cc1OC | > 100 µM (inactive) | > 100 µM (inactive) | > 100 µM (inactive) | > 100 µM (inactive) | > 100 µM (inactive) | > 100 µM (inactive) | > 100 µM (inactive) | > 100 µM | > 100 µM (inactive) | > 100 µM (inactive) | – | > 100 µM (inactive) | > 100 µM (inactive) | > 100 µM (inactive) | > 100 µM (inactive) | > 100 µM (inactive) | > 100 µM (inactive)
12 | CC1=C(C(=O)Nc2cc(F)c(F)cc2F)C(c2ccc(N(C)C)cc2)C(C(=O)Nc2cc(F)c(F)cc2F)=C(C)N1 | 28.9 µM (inactive) | 24.3 µM (inactive) | 15.4 µM (inactive) | 32.7 µM (inactive) | 25.5 µM (inactive) | 35.5 µM (inactive) | 17.1 µM (inactive) | – | 17.8 µM (inactive) | 30.3 µM (inactive) | 13.8 µM (inactive) | 21.5 µM (inactive) | 0.432 µM (active) | 18.2 µM (inactive) | 32.7 µM (inactive) | 19.4 µM (inactive) | 19.9 µM (inactive)
13 | CC(=O)O[C@]12CCCCCCC1C1(O)C(O)CCC[C@H]12 (stereo not given in full) | > 100 µM (inactive) | > 100 µM (inactive) | > 100 µM (inactive) | > 100 µM (inactive) | > 100 µM (inactive) | – | > 100 µM (inactive) | > 100 µM | > 100 µM (inactive) | > 100 µM (inactive) | – | > 100 µM (inactive) | – | – | > 100 µM (inactive) | > 100 µM (inactive) | > 100 µM (inactive)
14 | Cn1c(=O)c(NC(=O)C(Cl)(Cl)Cl)nc2ccccc21 | > 100 µM (inactive) | > 100 µM (inactive) | > 100 µM (inactive) | > 100 µM (inactive) | > 100 µM (inactive) | > 100 µM (inactive) | 81.8 µM (inactive) | > 100 µM | > 100 µM (inactive) | > 100 µM (inactive) | > 100 µM (inactive) | 62.5 µM (inactive) | > 100 µM (inactive) | > 100 µM (inactive) | > 100 µM (inactive) | – | > 100 µM (inactive)
15 | CC1(CO)C(=O)OC12CCCCC2 (stereo not given) | – | > 100 µM (inactive) | > 100 µM (inactive) | > 100 µM (inactive) | > 100 µM (inactive) | > 100 µM (inactive) | – | – | – | > 100 µM (inactive) | > 100 µM (inactive) | 84.5 µM (inactive) | > 100 µM (inactive) | > 100 µM (inactive) | > 100 µM (inactive) | – | > 100 µM (inactive)
16 | C=CCN1C(=O)CS/C1=N\NC(=O)c1c(C)nc2sccn12 | > 100 µM (inactive) | > 100 µM (inactive) | > 100 µM (inactive) | > 100 µM (inactive) | > 100 µM (inactive) | > 100 µM (inactive) | > 100 µM (inactive) | > 100 µM | > 100 µM (inactive) | > 100 µM (inactive) | > 100 µM (inactive) | – | > 100 µM (inactive) | > 100 µM (inactive) | > 100 µM (inactive) | > 100 µM (inactive) | > 100 µM (inactive)
17 | COc1ccc(C(=O)Nc2ccn(CCOC(=O)c3ccc(OC)cc3)c(=O)n2)cc1 | 86.7 µM (inactive) | 58.9 µM (inactive) | – | > 100 µM (inactive) | > 100 µM (inactive) | > 100 µM (inactive) | 20.1 µM (inactive) | > 100 µM | > 100 µM (inactive) | > 100 µM (inactive) | > 100 µM (inactive) | > 100 µM (inactive) | > 100 µM (inactive) | > 100 µM (inactive) | > 100 µM (inactive) | > 100 µM (inactive) | > 100 µM (inactive)
